# Earlier results, collected in patent publication US5200396A, “Method of treating neurodegenerative disorders using epidermal growth factor” (Zambon Group S.p.A., priority 1990, dated 1993).
# System: rats with lesion of the nigrostriatal pathway
# Details: lesion of the nigrostriatal pathway model; Brain Research, 459, 398, (1988)
substance,measurement,value
NGF: growth factor acting as trophic factor towards some neuronal types,efficacy in changing the rotational behaviour of the animal,"did not show, in practice, any efficacy"
